Test system: Mild to Moderate Osteoarthritis of the Knee
Experiment: Phase 2 study: WOMAC joint stiffness subscale score
Format: in vivo, human
Conditions: for Change of WOMAC Joint Stiffness score from baseline (±SEM), adjusted by […] of the Testing Drug Amount / Percentage of improvement from baseline, WOMAC Joint Stiffness score, adjusted by […] of the Testing Drug Amount / Change of WOMAC Joint Stiffness score from baseline (±SEM) / Percentage of improvement from baseline, WOMAC Joint Stiffness score: 35 mg/knee (BID); for Change of WOMAC Joint Stiffness score from baseline (±SEM) / Percentage of improvement from baseline, WOMAC Joint Stiffness score: all patients taken as active; for WOMAC Joint Stiffness Subscale Score, Avg.: Avg. of all patients; for WOMAC Joint Stiffness Subscale Score, Avg. / WOMAC Joint Stiffness Subscale Score: blinded; for WOMAC Joint Stiffness Subscale Score: individual patient
Text: This is a Phase 2, multicenter, randomized, double blind (within dose), placebo controlled, parallel group, proof of concept, and dose range finding study to evaluate the efficacy, safety, and PK of 2-(diethylamino)ethyl 2-(4-isobutylphenyl)propionate hydrochloride spray in adult subjects with clinically symptomatic mild to moderate OA of the knee. For subjects with bilateral knee pain, both knees will be treated, but the most symptomatic knee (i.e., the most painful knee as measured by the Western Ontario and McMaster University Osteoarthritis Index [WOMAC® 3.1] pain subscale score at Screening) will be designated as the target knee for efficacy analyses. For subjects with unilateral knee pain, only the symptomatic (target) knee will be treated.
After a Screening Period of up to 3 weeks and radiographic evaluation of the target knee joint space, a subject will be randomly assigned to 1 of 3 treatment groups in a 1:1:1 ratio with a 2:1 ratio of active:placebo within each treatment group (ie, 2 subjects to active treatment and 1 subject to placebo): • Group A: 8.75 mg 2-(diethylamino)ethyl 2-(4-isobutylphenyl)propionate/knee (2 sprays/knee, one spray to the medial surface and one spray to the lateral surface of the knee), twice daily (BID, approximately every 12 hours; n=50) or placebo (2 sprays/knee), BID (approximately every 12 hours; n=25) for a total of 4 sprays per knee per day; • Group B: 17.5 mg 2-(diethylamino)ethyl 2-(4-isobutylphenyl)propionate/knee (4 sprays/knee, one spray to the medial surface and one spray to the lateral surface of the knee, and one spray to front and one spray to the back of the knee), BID (approximately every 12 hours; n=50) or placebo (4 sprays/knee), BID (approximately every 12 hours; n=25) for a total of 8 sprays per knee per day; • Group C: 35 mg 2-(diethylamino)ethyl 2-(4-isobutylphenyl)propionate/knee (8 sprays/knee, each spray is to be applied to a different non-overlapping area around the knee, and the areas are to be uniformly distributed around the knee), BID (approximately every 12 hours; n=50) or placebo (8 sprays/knee), BID (approximately every 12 hours; n=25) for a total of 16 sprays per knee per day.
The VAS version of the WOMAC will be used for the Primary and Secondary Efficacy Endpoints. Efficacy endpoints will be assessed at Screening and Baseline (Day 1) and at the Week 2, Week 4, Week 8, and Week 12/EOS visits.
3.9.2. Secondary Efficacy Endpoints: • 1. Change from Baseline in the WOMAC (VAS) pain subscale score for the target knee at 2, 4, and 8 weeks of treatment; • 2. Change from Baseline in the WOMAC (VAS) stiffness subscale scores for the target knee and WOMAC (VAS) functional ability subscale scores at 2, 4, 8, and 12 weeks of treatment; • 3. Change from Baseline in the overall WOMAC (VAS) score at 2, 4, 8, and 12 weeks of treatment.
The Secondary Efficacy Endpoints, change from Baseline in the WOMAC subscale scores for pain, stiffness, and functional ability, and overall WOMAC score at 2, 4, 8, and 12 weeks of treatment, will be analyzed using the same methods as for the Primary Efficacy Endpoint.
To determine this, we assumed that all patients received 2-(diethylamino)ethyl 2-(4-isobutylphenyl)propionate, active drug treatment (i.e. all patients who received 2-(diethylamino)ethyl 2-(4-isobutylphenyl)propionate or placebo treatment for 12 weeks or mixed up treatment during the 12-week treatment, as 2-(diethylamino)ethyl 2-(4-isobutylphenyl)propionate-treated). Based on this assumption, that is, to treat this trial as an open-label study and that all patients received active treatment, we conducted efficacy analysis using top-line efficacy datasets prepared by CRO and the re-analysis results are presented in the following tables (Tables 29-47). […] (William G. Bensen, Justus J. Fiechtner, James 1. McMillen, et. al. Treatment of Osteoarthritis with Celecoxib. Mayo Clin Proc, November 1999. Vol 74, 1095-1105.)

[1] = Middle Dose (4 spray/knee, 17.5 mg/knee) Cohort, Day 1
[2] = Middle Dose (4 spray/knee, 17.5 mg/knee) Cohort, Week 2

For CCN(CC)CCOC(=O)C(C)c1ccc(CC(C)C)cc1 (centres unmarked) [2-(diethylamino)ethyl 2-(4-isobutylphenyl)propionate], which “Change of WOMAC Joint Stiffness score from baseline (±SEM), adjusted by […] of the Testing Drug Amount” value (Week 8 (day 56)) is on record?
Its value is −36.9(±5.8) mm.

And the “Percentage of improvement from baseline, WOMAC Joint Stiffness score, adjusted by […] of the Testing Drug Amount” value (Week 8 (day 56))?
Its value is −59.3%.

And the “Change of WOMAC Joint Stiffness score from baseline (±SEM)” value (Week 8 (day 56))?
The value was −21.5(±3.4) mm.

And the “Percentage of improvement from baseline, WOMAC Joint Stiffness score” value (Week 8 (day 56))?
Its value is −34.6%.

What about the “Change of WOMAC Joint Stiffness score from baseline (±SEM), adjusted by […] of the Testing Drug Amount” value (Week 12 (day 84)) of the same molecule?
Its value is −41.2(±5.7) mm.

And the “Percentage of improvement from baseline, WOMAC Joint Stiffness score, adjusted by […] of the Testing Drug Amount” value (Week 12 (day 84))?
The value was −66.2%.

What about the “Change of WOMAC Joint Stiffness score from baseline (±SEM)” value (Week 12 (day 84)) of the same molecule?
Its value is −24.0(±3.3) mm.

What about the “Percentage of improvement from baseline, WOMAC Joint Stiffness score” value (Week 12 (day 84)) of the same molecule?
The value was −38.6%.

And the “reduction of Stiffness WOMAC from baseline to week 12” value (5 patients on second batch active drug kits)?
The value was 58.6-100%.

And the “WOMAC Joint Stiffness Subscale Score, Avg.” value (35 mg/knee (8 spray/knee), Day 1)?
Its value is 62.1.

And the “WOMAC Joint Stiffness Subscale Score, Avg.” value (35 mg/knee (8 spray/knee), Follow-up)?
The value was 37.7.

What about the “WOMAC Joint Stiffness Subscale Score, Avg.” value (35 mg/knee (8 spray/knee), Week 2) of the same molecule?
The value was 50.8.

And the “WOMAC Joint Stiffness Subscale Score, Avg.” value (35 mg/knee (8 spray/knee), Week 4)?
Its value is 44.5.

And the “WOMAC Joint Stiffness Subscale Score, Avg.” value (35 mg/knee (8 spray/knee), Week 8)?
Its value is 40.6.

What about the “WOMAC Joint Stiffness Subscale Score, Avg.” value (35 mg/knee (8 spray/knee), Week 12) of the same molecule?
The value was 38.1.

What about the “WOMAC Joint Stiffness Subscale Score, Avg.” value [1] of the same molecule?
Its value is 68.0.

And the “WOMAC Joint Stiffness Subscale Score, Avg.” value (Middle Dose (4 spray/knee, 17.5 mg/knee) Cohort, Follow-up)?
Its value is 41.9.

And the “WOMAC Joint Stiffness Subscale Score, Avg.” value [2]?
The value was 49.2.

What about the “WOMAC Joint Stiffness Subscale Score, Avg.” value (Middle Dose (4 spray/knee, 17.5 mg/knee) Cohort, Week 4) of the same molecule?
The value was 44.7.

What about the “WOMAC Joint Stiffness Subscale Score, Avg.” value (Middle Dose (4 spray/knee, 17.5 mg/knee) Cohort, Week 8) of the same molecule?
Its value is 41.5.

And the “WOMAC Joint Stiffness Subscale Score, Avg.” value (Middle Dose (4 spray/knee, 17.5 mg/knee) Cohort, Week 12)?
The value was 38.2.

And the “WOMAC Joint Stiffness Subscale, WOMAC VAS Score” value (Patient 1056, second batch active drug kits, Day 1)?
The value was 48.5 mm.

And the “WOMAC Joint Stiffness Subscale, WOMAC VAS Score” value (Patient 1056, second batch active drug kits, Follow Up)?
Its value is 17.0 mm.

And the “WOMAC Joint Stiffness Subscale, WOMAC VAS Score” value (Patient 1056, second batch active drug kits, Week 2)?
Its value is 45.0 mm.

What about the “WOMAC Joint Stiffness Subscale, WOMAC VAS Score” value (Patient 1056, second batch active drug kits, Week 4) of the same molecule?
Its value is 44.5 mm.

And the “WOMAC Joint Stiffness Subscale, WOMAC VAS Score” value (Patient 1056, second batch active drug kits, Week 8)?
Its value is 43.5 mm.

And the “WOMAC Joint Stiffness Subscale, WOMAC VAS Score” value (Patient 1056, second batch active drug kits, Week 12)?
Its value is 23.5 mm.

And the “WOMAC Joint Stiffness Subscale, WOMAC VAS Score” value (Patient 1064, second batch active drug kits, Day 1)?
Its value is 66.5 mm.

What about the “WOMAC Joint Stiffness Subscale, WOMAC VAS Score” value (Patient 1064, second batch active drug kits, Follow Up) of the same molecule?
The value was 1.0 mm.

And the “WOMAC Joint Stiffness Subscale, WOMAC VAS Score” value (Patient 1064, second batch active drug kits, Week 2)?
Its value is 20.5 mm.

And the “WOMAC Joint Stiffness Subscale, WOMAC VAS Score” value (Patient 1064, second batch active drug kits, Week 4)?
Its value is 12.5 mm.

What about the “WOMAC Joint Stiffness Subscale, WOMAC VAS Score” value (Patient 1064, second batch active drug kits, Week 8) of the same molecule?
Its value is 0.0 mm.

What about the “WOMAC Joint Stiffness Subscale, WOMAC VAS Score” value (Patient 1064, second batch active drug kits, Week 12) of the same molecule?
Its value is 1.0 mm.

And the “WOMAC Joint Stiffness Subscale, WOMAC VAS Score” value (Patient 1535, second batch active drug kits, Day 1)?
Its value is 55.0 mm.

What about the “WOMAC Joint Stiffness Subscale, WOMAC VAS Score” value (Patient 1535, second batch active drug kits, Follow Up) of the same molecule?
The value was 0.0 mm.

What about the “WOMAC Joint Stiffness Subscale, WOMAC VAS Score” value (Patient 1535, second batch active drug kits, Week 2) of the same molecule?
Its value is 3.5 mm.

And the “WOMAC Joint Stiffness Subscale, WOMAC VAS Score” value (Patient 1535, second batch active drug kits, Week 4)?
Its value is 3.0 mm.

What about the “WOMAC Joint Stiffness Subscale, WOMAC VAS Score” value (Patient 1535, second batch active drug kits, Week 8) of the same molecule?
The value was 3.0 mm.

And the “WOMAC Joint Stiffness Subscale, WOMAC VAS Score” value (Patient 1535, second batch active drug kits, Week 12)?
Its value is 0.0 mm.

What about the “WOMAC Joint Stiffness Subscale, WOMAC VAS Score” value (Patient 1539, second batch active drug kits, Day 1) of the same molecule?
Its value is 70.0 mm.

What about the “WOMAC Joint Stiffness Subscale, WOMAC VAS Score” value (Patient 1539, second batch active drug kits, Follow Up) of the same molecule?
Its value is 2.0 mm.

What about the “WOMAC Joint Stiffness Subscale, WOMAC VAS Score” value (Patient 1539, second batch active drug kits, Week 2) of the same molecule?
Its value is 54.5 mm.

And the “WOMAC Joint Stiffness Subscale, WOMAC VAS Score” value (Patient 1539, second batch active drug kits, Week 4)?
Its value is 44.0 mm.

What about the “WOMAC Joint Stiffness Subscale, WOMAC VAS Score” value (Patient 1539, second batch active drug kits, Week 8) of the same molecule?
Its value is 8.0 mm.

What about the “WOMAC Joint Stiffness Subscale, WOMAC VAS Score” value (Patient 1539, second batch active drug kits, Week 12) of the same molecule?
The value was 3.0 mm.

And the “WOMAC Joint Stiffness Subscale, WOMAC VAS Score” value (Patient 9032, second batch active drug kits, Day 1)?
The value was 14.5 mm.

What about the “WOMAC Joint Stiffness Subscale, WOMAC VAS Score” value (Patient 9032, second batch active drug kits, Follow Up) of the same molecule?
Its value is 9.5 mm.

What about the “WOMAC Joint Stiffness Subscale, WOMAC VAS Score” value (Patient 9032, second batch active drug kits, Week 2) of the same molecule?
Its value is 9.5 mm.

And the “WOMAC Joint Stiffness Subscale, WOMAC VAS Score” value (Patient 9032, second batch active drug kits, Week 4)?
The value was 5.0 mm.

And the “WOMAC Joint Stiffness Subscale, WOMAC VAS Score” value (Patient 9032, second batch active drug kits, Week 8)?
The value was 3.0 mm.

What about the “WOMAC Joint Stiffness Subscale, WOMAC VAS Score” value (Patient 9032, second batch active drug kits, Week 12) of the same molecule?
Its value is 6.0 mm.

And the “WOMAC Joint Stiffness Subscale Score” value [1]?
Its value is 64.5.

What about the “WOMAC Joint Stiffness Subscale Score” value [2] of the same molecule?
The value was 62.0.
